In publication PMC10507113, “Function and phylogeny support the independent evolution of an ASIC-like Deg/ENaC channel in the Placozoa” (Communications Biology, 2023):

Assays:
[1] = biological target: T1, mouse ASIC1a (mASIC1a) (Mus musculus, UniProt Q6NXK8); experiment: whole-cell patch clamp, CHO-K1, single-dose block of peak inward current; type: cell-based; details: read-out: % block at 3 mM
T1 construct: gene Asic1; synthetic full-length subunit, untagged in pIRES2-EGFP (pmASIC1-IR-EGFP), CHO-K1 cells; homotrimer
T1 sequence (Q6NXK8 1-526): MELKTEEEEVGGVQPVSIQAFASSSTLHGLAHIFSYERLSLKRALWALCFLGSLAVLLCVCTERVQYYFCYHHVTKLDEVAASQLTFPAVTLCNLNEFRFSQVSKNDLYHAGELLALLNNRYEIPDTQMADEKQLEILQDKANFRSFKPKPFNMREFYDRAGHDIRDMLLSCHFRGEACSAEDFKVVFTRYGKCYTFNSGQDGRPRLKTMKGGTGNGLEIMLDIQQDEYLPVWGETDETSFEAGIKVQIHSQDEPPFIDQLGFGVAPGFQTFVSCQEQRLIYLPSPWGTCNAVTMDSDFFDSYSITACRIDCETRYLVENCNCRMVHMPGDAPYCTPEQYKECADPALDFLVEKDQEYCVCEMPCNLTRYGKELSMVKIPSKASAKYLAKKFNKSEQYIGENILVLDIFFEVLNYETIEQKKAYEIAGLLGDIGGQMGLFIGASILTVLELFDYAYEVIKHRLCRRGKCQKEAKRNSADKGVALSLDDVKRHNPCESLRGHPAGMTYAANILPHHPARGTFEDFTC

[2] = biological target: T2, TadNaC2 (Trichoplax adhaerens, UniProt A0A5J6BSS6); experiment: whole-cell patch clamp, CHO-K1, amiloride dose-response of peak inward current; type: cell-based
T2 construct: gene ASIC2; full-length cDNA cloned from whole-animal RNA, untagged in pIRES2-EGFP (pTadNaC2-IR-EGFP), CHO-K1 cells; homotrimer modelled; residues F70, T72, D75, E77, H80, E104, E105, H109, W165, F188, L198, R201, K203, S228, P229, W276, L332, S336, D413
T2 sequence (A0A5J6BSS6 1-548): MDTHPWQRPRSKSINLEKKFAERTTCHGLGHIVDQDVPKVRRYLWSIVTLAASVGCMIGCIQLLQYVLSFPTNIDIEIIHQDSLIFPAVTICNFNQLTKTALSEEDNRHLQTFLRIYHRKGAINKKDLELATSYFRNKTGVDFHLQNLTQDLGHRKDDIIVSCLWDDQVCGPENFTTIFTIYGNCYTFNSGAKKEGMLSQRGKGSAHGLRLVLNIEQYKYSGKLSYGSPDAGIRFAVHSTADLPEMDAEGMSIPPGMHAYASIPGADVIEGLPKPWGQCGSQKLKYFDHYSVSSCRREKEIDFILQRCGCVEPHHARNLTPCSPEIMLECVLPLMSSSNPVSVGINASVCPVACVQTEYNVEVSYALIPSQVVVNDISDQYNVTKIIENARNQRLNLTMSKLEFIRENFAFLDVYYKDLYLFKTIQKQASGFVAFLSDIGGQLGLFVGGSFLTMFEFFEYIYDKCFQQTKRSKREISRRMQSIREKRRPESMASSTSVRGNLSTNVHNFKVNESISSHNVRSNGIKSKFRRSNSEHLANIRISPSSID

Structure (SMILES): N=C(N)NC(=O)c1nc(Cl)c(N)nc1N [amiloride]
- inhibition at 3000 µM [1]: 73 ± 4.1%
- IC50 [2]: 52 ± 29.6 µM
